# Measured values published in US20100227918A1, “STREPTOMYCES-DERIVED ANTIMICROBIAL COMPOUND AND METHOD OF USING SAME AGAINST ANTIBIOTIC-RESISTANT BACTERIA” (Taro Pharmaceuticals North America, Inc., priority 2006, published 2010).
# Assays:
# Candida albicans = assay: antimicrobial paper disc assay (zone of inhibition); assay type: cell-based; conditions: known antibiotic controls, zone diameters of the classes (L1)
# Protocol: (§1) The antimicrobial assay was performed as described in USP (See, Molecular Cloning, A Laboratory Manual). In brief, tested microorganism strains were grown in optimal culture media for growth at the optimal growth temperature for about 16 hours with shaking. Tested plates were prepared as follows. First, base agar layer-media were prepared as per USP. The media were then autoclaved, and cooled to 48° C. Once cooled to 48° C., 20 mL of the cooled media was poured onto a sterile polystyrene petri dish. This base agar layer was further allowed to solidify for 30 minutes (agar was added as a solidifying agent). Second, seed agar layers were prepared as per USP. The media were then autoclaved, and cooled to 48° C. Once cooled to 48° C., 1 mL of tested microorganism strain (already grown for 16 hours as described in the first step above) was added to the seed agar media. The seed agar media was gently swirled to mix. Five (5) mL of the seed agar media was pipetted on top of the base agar layer. Care was taken to avoid air bubbles. This seed agar media was allowed to cool for about 15 minutes at room temperature. Plates were stored at 4° C. until needed.
# (§2) Ten (10) μl of each of the concentrated supernatants (described above) were pipetted onto a sterile filter paper disc. The sterile filter paper discs were dried in air for approximately 5 minutes. The sterile filter paper discs were carefully applied onto the surface of the plates (prepared as described above). Plates holding sterile filter discs were incubated either at 37° C. (for Micrococcus luteus, E. coli, and Pseudomonas aeriginosa) or at 30° C. (for Candida albicans) for a timer period of 24 hours. Negative controls included liquid culture media. Positive controls included known antimicrobial compounds such as vancomycin (against gram-positive bacteria), tetracycline (against gram-positive/gram-negative bacteria), and amphotericin B (against yeast/fungi).
# (§3) Antimicrobial Assays: 10 μl of the 10-fold concentrated supernatants from each of the six (6) isolated colony was assayed for their antimicrobial activity against the twelve (12) microorganisms as listed above. The antimicrobial assay used in the tertiary screening was similar to that used in the secondary screening. In brief, tested microorganism strains were grown in optimal culture media for growth at the optimal growth temperature for about 16 hours with shaking. Tested plates were prepared as follows. First, base agar layer-media were prepared as per USP. The media were then autoclaved, and cooled to 48° C. Once cooled to 48° C., 20 mL of the cooled media was poured onto a sterile polystyrene petri dish. This base agar layer was further allowed to solidify for 30 minutes (agar was added as a solidifying agent). Second, seed agar layers were prepared as per USP. The media were then autoclaved, and cooled to 48° C. Once cooled to 48° C., 1 mL of tested microorganism strain (already grown for 16 hours as described in the first step above) was added to the seed agar media. The seed agar media was gently swirled to mix. Five (5) mL of the seed agar media was pipetted on top of the base agar layer. Care was taken to avoid air bubbles. This seed agar media was allowed to cool for about 15 minutes at room temperature. Plates were stored at 4° C. until needed.
# (§4) Ten (10) μl of each of the concentrated supernatants were pipetted onto a sterile filter paper disc. The sterile filter paper discs were dried in air for approximately 5 minutes. The sterile filter paper discs were carefully applied onto the surface of the plates. Plates holding sterile filter discs were incubated either at 37° C. (for Staphylococcus aureus, MRSA, VRSA, Enterococcus faecilis, VRE, Micrococcus luteus, E. coli, Serratia marcesens and Pseudomonas aeriginosa) or at 30° C. (for Candida albicans) for a time period of 24 hours. Negative controls included liquid culture media.
# [1] = system: some gram-positive bacteria (such as Staphylococcus and Streptococcus); conditions: prior art, U.S. Pat. No. 3,966,913 and Japanese patents; cited from earlier work
# [2] = system: methicillin or vancomycin resistant gram-positive bacteria; conditions: prior art; cited from earlier work
# [3] = system: penicillin-resistant Staphylococcus; conditions: prior art; cited from earlier work
# Serratia marcesens = assay: antimicrobial paper disc assay (zone of inhibition); assay type: cell-based; conditions: known antibiotic controls, zone diameters of the classes (L1)
# Protocol: as §3
# as §4, with “media. Positive controls included known antimicrobial compounds such as vancomycin (against gram-positive bacteria), tetracycline (against gram-positive/gram-negative bacteria), and amphotericin B (against yeast/fungi).” for “media.”
# (§5) In general, a zone of inhibition visualized as having a diameter of about 7-10 mm is classified as “+”; a diameter of about 11-14 mm is “++”; a diameter of about 15-18 mm is “+++”; a diameter of about 19-22 mm is “++++”, and a diameter of greater than 23 mm is classified as “+++++”.
# (§6) The HPLC-purified material was diluted with sterile distilled water to a concentration of 0.1 μg/mL. The diluted HPLC-purified material was assayed for antimicrobial activity using the antimicrobial assay as described above. The diluted HPLC-purified material was assayed for its antimicrobial activity against ten (10) microorganisms; namely, 1) Staphylococcus aureus; 2) methicillin-resistant Staphylococcus aureus; 3) vancomycin-resistant Staphylococcus aureus; 4) Enterococcus faecilis; 5) vancomycin-resistant Enterococcus faecilis; 6) Mycobacterium smegmatis; 7) E. coli; 8) Pseudomonas aeriginosa; 9) Serratia marcesens; and 10) Candida albicans.
# Pseudomonas aeriginosa = assay: as above; assay type: cell-based; conditions: known antibiotic controls, zone diameters of the classes (L1)
# Protocol: as §1, §2, §3, §4
# E. coli = assay: as above; assay type: cell-based; conditions: known antibiotic controls, zone diameters of the classes (L1)
# Protocol: as §1, §2, §3, §4
# [4] = system: Methicillin-Resistant Staphylococcus aureus; assay: as above; assay type: cell-based; conditions: HPLC-purified material (>99% purity) diluted to 0.1 μg/mL, known antibiotic controls, zone diameters of the classes (L1)
# Protocol: (§7) Ten (10) μl of each of the concentrated supernatants were pipetted onto a sterile filter paper disc. The sterile filter paper discs were dried in air for approximately 5 minutes. The sterile filter paper discs were carefully applied onto the surface of the plates. Plates holding sterile filter discs were incubated either at 37° C. […]
# Mycobacteria smegmatis = conditions: Journal of Antibiotics 29(7), 756-8; cited from earlier work
# [5] = system: Vancomycin-Resistant Enterococcus faecilis; assay: antimicrobial paper disc assay (zone of inhibition); assay type: cell-based; conditions: HPLC-purified material (>99% purity) diluted to 0.1 μg/mL, zone diameters of the classes (L1)
# Protocol: as §3
# as §4, with “media. Positive controls included known antimicrobial compounds such as vancomycin (against gram-positive bacteria), tetracycline (against gram-positive/gram-negative bacteria), and amphotericin B (against yeast/fungi).” for “media.”
# as §5, §6
# Mycobacterium smegmatis = assay: as above; assay type: cell-based; conditions: HPLC-purified material (>99% purity) diluted to 0.1 μg/mL, known antibiotic controls, zone diameters of the classes (L1)
# Protocol: as §3
# as §4, with “media. Positive controls included known antimicrobial compounds such as vancomycin (against gram-positive bacteria), tetracycline (against gram-positive/gram-negative bacteria), and amphotericin B (against yeast/fungi).” for “media.”
# as §5, §6
# [6] = system: Vancomycin-Resistant Staphylococcus aureus; assay: as above; assay type: cell-based; conditions: HPLC-purified material (>99% purity) diluted to 0.1 μg/mL, zone diameters of the classes (L1)
# Protocol: as §3
# as §4, with “media. Positive controls included known antimicrobial compounds such as vancomycin (against gram-positive bacteria), tetracycline (against gram-positive/gram-negative bacteria), and amphotericin B (against yeast/fungi).” for “media.”
# as §5, §6
# Enterococcus faecilis = assay: as above; assay type: cell-based; conditions: HPLC-purified material (>99% purity) diluted to 0.1 μg/mL, known antibiotic controls, zone diameters of the classes (L1)
# Protocol: as §3
# as §4, with “media. Positive controls included known antimicrobial compounds such as vancomycin (against gram-positive bacteria), tetracycline (against gram-positive/gram-negative bacteria), and amphotericin B (against yeast/fungi).” for “media.”
# as §5, §6
# Staphylococcus aureus = assay: as above; assay type: cell-based; conditions: HPLC-purified material (>99% purity) diluted to 0.1 μg/mL, known antibiotic controls, zone diameters of the classes (L1)
# Protocol: as §7
# [7] = HPLC-purified material (>99% purity) diluted to 0.1 μg/mL, paper disc assay
# [8] = tertiary screening, 10 μl of 10-fold concentrated supernatant on paper disc, 37° C., 24 hours
compound,measurement,setting,value
C[C@@H]1[C@H](O)[C@@H](C)/C=C/C=C/C=C/C=C/C=C/C=C/C=C/[C@H](O[C@@H]2O[C@H](C)[C@@H](O)[C@H](N)[C@@H]2O)C[C@@H]2O[C@](O)(C[C@@H](O)C[C@@H](O)[C@H](O)CC[C@@H](O)C[C@@H](O)CC(=O)O[C@H]1C)C[C@H](O)[C@H]2C(=O)O [amphotericin B],"Antimicrobial Activity (zone of inhibition), Candida albicans",Candida albicans; [7],amphotericin B (+++++)
same,"Antimicrobial Activity (zone of inhibition), Candida albicans","Candida albicans; tertiary screening, 10 μl of 10-fold concentrated supernatant on paper disc, 30° C., 24 hours",amphotericin B (+++++)
CC1OC2CC(=O)OC2C2=C1C(=O)c1c(ccc(C3CC(N(C)C)C(O)C(C)O3)c1O)C2=O (stereo not shown) [Lactoquinomycin A],antimicrobial activity against some gram-positive bacteria (such as Staphylococcus and Streptococcus),[1],exert an antimicrobial activity
same,antimicrobial activity against methicillin or vancomycin resistant gram-positive bacteria,[2],no antimicrobial activity
same,antimicrobial activity against certain penicillin-resistant Staphylococcus,[3],exert an antimicrobial activity
gentamicin,"Antimicrobial Activity (zone of inhibition), Serratia marcesens",Serratia marcesens; [7],gentamicin (+++++)
same,"Antimicrobial Activity (zone of inhibition), Serratia marcesens",Serratia marcesens; [8],gentamicin (+++++)
same,"Antimicrobial Activity (zone of inhibition), Pseudomonas aeriginosa",Pseudomonas aeriginosa; [7],gentamicin (+++++)
same,"Antimicrobial Activity (zone of inhibition), Pseudomonas aeriginosa",Pseudomonas aeriginosa; [8],gentamicin (+++++)
CN(C)[C@@H]1C(O)=C(C(N)=O)C(=O)[C@@]2(O)C(O)=C3C(=O)c4c(O)cccc4[C@@](C)(O)[C@H]3C[C@@H]12 [tetracycline],"Antimicrobial Activity (zone of inhibition), E. coli",E. coli; [7],tetracycline (+++++)
same,"Antimicrobial Activity (zone of inhibition), E. coli",E. coli; [8],tetracycline (+++++)
"CC1OC2CC(=O)OC2C2=C1C(=O)c1c(ccc(C3CC(N(C)C)C(O)C(C)O3)c1O)C2=O [Purified Lactoquinomycin, 2H-Furo[3,2-b]naphtho[2,3-d]pyran-2,6,11-trione,3,3a,5,11b-tetrahydro-7-hydroxy-5-methyl-8-[2,3,6-trideoxy-3-(dimethylamino)-β-D-arabino-hexopyranosyl]-,(3aR,5R,11bR)]","Antimicrobial Activity (zone of inhibition), Methicillin-Resistant Staphylococcus aureus",[4],+++++
same,antimicrobial activity against mycobacteria (i.e. Mycobacteria smegmatis),Mycobacteria smegmatis,no antimicrobial activity
same,"Antimicrobial Activity (zone of inhibition), Vancomycin-Resistant Enterococcus faecilis",[5],+++
same,"Antimicrobial Activity (zone of inhibition), Mycobacterium smegmatis",Mycobacterium smegmatis,+++++
same,"Antimicrobial Activity (zone of inhibition), Vancomycin-Resistant Staphylococcus aureus",[6],+++++
same,"Antimicrobial Activity (zone of inhibition), Enterococcus faecilis",Enterococcus faecilis,+++
same,"Antimicrobial Activity (zone of inhibition), Serratia marcesens",Serratia marcesens; [7],−
same,"Antimicrobial Activity (zone of inhibition), Staphylococcus aureus",Staphylococcus aureus,+++++
same,"Antimicrobial Activity (zone of inhibition), Candida albicans",Candida albicans; [7],−
same,"Antimicrobial Activity (zone of inhibition), Pseudomonas aeriginosa",Pseudomonas aeriginosa; [7],−
same,"Antimicrobial Activity (zone of inhibition), E. coli",E. coli; [7],−
